The data set can be described thus: Chemical stability (RP-HPLC normalized purity after incubation at 40° C.). In kind it is physicochemical. Conditions: pH 7, 40° C., 14-day incubation, 0.2 mg/ml, normalized purity (area-%). The method, then: Samples of each test peptide were dissolved in MILLIQ™ water, and the pH of the solution was adjusted to pH 6, 7, 7.5 or 9 using either HCl or NaOH. The final peptide concentration was 0.2 mg/ml. Samples were placed in glass vials and incubated at 40° C. The samples were analyzed by RP-HPLC on a C18 column with gradient elution using an acetonitrile/TFA/water eluent system. The area-percentage (area-%) of the main peak after incubation time T=t (relative to time T=0) was determined by UV spectroscopy at 220 nm.
The purity was first determined as follows: Purity(area-%)=(area of main peak/total area of all peaks)×100.
The purity was then normalized between time points by setting purity at time 0 (T=0) to 100 for each pH value for a given peptide, as follows: Normalized area-% at time t(T=t)=[area-%(T=t)/area-%(T=0)]×100.
The chemical stability assessment results after 14-day incubation (in the form of normalized purity values) are summarized in Table 4.

The values that follow come from patent US11395847B2, “Acylated GLP-1/GLP-2 dual agonists” (Zealand Pharma A/S, priority 2016, dated 2022).

The structures appear in SMILES notation. *1 amine or outer side, *2 acyl side, *3 side chain or, on linkers, in order; H or OH if unused. Where a SMILES comes first, the peptide text is derived from it. Side-chain parts run from the residue outwards. [ ]: non-standard residue; d: D form. The star is where a group is joined. C20 diacid = O=C(O)CCCCCCCCCCCCCCCCCCC(=O)*; γGlu = O=C(O)[C@H](CCC(=O)[*:2])N[*:1]; AEEA = NCCOCCOCC(=O)O; Aib = CC(C)(N)C(=O)O

Turning to `CC[C@H](C)[C@H](NC(=O)[C@H](CC(C)C)NC(=O)[C@H](Cc1c[nH]c2ccccc12)NC(=O)[C@H](C)NC(=O)[C@@H](NC(=O)[C@H](Cc1ccccc1)NC(=O)[C@H](CC(=O)O)NC(=O)[C@H](CCCNC(=N)N)NC(=O)[C@H](C)NC(=O)[C@H](C)NC(=O)[C@H](CC(C)C)NC(=O)[C@H](CCCCNC(=O)CC[C@H](NC(=O)CCCCCCCCCCCCCCCCC(=O)O)C(=O)O)NC(=O)[C@H](CC(=O)O)NC(=O)[C@H](CC(C)C)NC(=O)[C@@H](NC(=O)[C@@H](NC(=O)[C@H](C)NC(=O)[C@H](CC(C)C)NC(=O)[C@H](CCC(=O)O)NC(=O)[C@H](CO)NC(=O)[C@@H](NC(=O)[C@H](Cc1ccccc1)NC(=O)[C@H](CO)NC(=O)CNC(=O)[C@H](CCC(=O)O)NC(=O)C(C)(C)NC(=O)[C@@H](N)Cc1c[nH]cn1)[C@@H](C)O)[C@@H](C)O)[C@@H](C)CC)[C@@H](C)CC)C(=O)N[C@@H](C)C(=O)N[C@@H](Cc1c[nH]cn1)C(=O)N[C@@H](CCCCN)C(=O)N[C@H](C(=O)N[C@H](C(=O)N[C@@H](CC(=O)O)C(=O)O)[C@@H](C)O)[C@@H](C)CC` [Compound 14] (HELM PEPTIDE1{H.[Aib].E.G.S.F.T.S.E.L.A.T.I.L.D.K.L.A.A.R.D.F.I.A.W.L.I.A.H.K.I.T.D}|PEPTIDE2{[O=C(O)CCCCCCCCCCCCCCCCC(=O)[*:2]].[gGlu]}$PEPTIDE1,PEPTIDE2,16:R3-2:R2$$$V2.0), the “pH 7 normalized stability” value is “A (>90% normalised stability)”.

Regarding `CCCCCCCCCCCCCCCC(=O)NCCC(=O)NCCCC[C@H](NC(=O)[C@H](CC(=O)O)NC(=O)[C@H](CC(C)C)NC(=O)[C@@H](NC(=O)[C@@H](NC(=O)[C@H](C)NC(=O)[C@H](CC(C)C)NC(=O)[C@H](CCC(=O)O)NC(=O)[C@H](CO)NC(=O)[C@@H](NC(=O)[C@H](Cc1ccccc1)NC(=O)[C@H](CO)NC(=O)CNC(=O)[C@H](CCC(=O)O)NC(=O)C(C)(C)NC(=O)[C@@H](N)Cc1c[nH]cn1)[C@@H](C)O)[C@@H](C)O)[C@@H](C)CC)C(=O)N[C@@H](CCC(N)=O)C(=O)N[C@@H](C)C(=O)N[C@@H](C)C(=O)N[C@@H](CCCNC(=N)N)C(=O)N[C@@H](CC(=O)O)C(=O)N[C@@H](Cc1ccccc1)C(=O)N[C@H](C(=O)N[C@@H](C)C(=O)N[C@@H](Cc1c[nH]c2ccccc12)C(=O)N[C@@H](CC(C)C)C(=O)N[C@@H](CCC(N)=O)C(=O)N[C@@H](CCC(N)=O)C(=O)N[C@@H](Cc1c[nH]cn1)C(=O)N[C@@H](CCCCN)C(=O)N[C@H](C(=O)N[C@H](C(=O)N[C@@H](CC(=O)O)C(=O)O)[C@@H](C)O)[C@@H](C)CC)[C@@H](C)CC` [Compound 32] (HELM PEPTIDE1{H.[Aib].E.G.S.F.T.S.E.L.A.T.I.L.D.K.Q.A.A.R.D.F.I.A.W.L.Q.Q.H.K.I.T.D}|PEPTIDE2{[CCCCCCCCCCCCCCCC(=O)[*:2]].[bAla]}$PEPTIDE1,PEPTIDE2,16:R3-2:R2$$$V2.0), the “pH 7 normalized stability” value is “A (>90% normalised stability)”.

As for `CC[C@H](C)[C@H](NC(=O)[C@H](Cc1ccccc1)NC(=O)[C@H](CC(=O)O)NC(=O)[C@H](CCCNC(=N)N)NC(=O)[C@H](C)NC(=O)[C@H](C)NC(=O)[C@H](CCC(N)=O)NC(=O)[C@H](CCCCNC(=O)COCCOCCNC(=O)CC[C@H](NC(=O)CCCCCCCCCCCCCCCCC(=O)O)C(=O)O)NC(=O)[C@H](CC(=O)O)NC(=O)[C@H](CC(C)C)NC(=O)[C@@H](NC(=O)[C@@H](NC(=O)[C@H](C)NC(=O)[C@H](CC(C)C)NC(=O)[C@H](CCC(=O)O)NC(=O)[C@H](CO)NC(=O)[C@@H](NC(=O)[C@H](Cc1ccccc1)NC(=O)[C@H](CO)NC(=O)CNC(=O)[C@H](CCC(=O)O)NC(=O)C(C)(C)NC(=O)[C@@H](N)Cc1c[nH]cn1)[C@@H](C)O)[C@@H](C)O)[C@@H](C)CC)C(=O)N[C@@H](C)C(=O)N[C@@H](Cc1c[nH]c2ccccc12)C(=O)N[C@@H](CC(C)C)C(=O)N[C@@H](Cc1ccc(O)cc1)C(=O)N[C@@H](CCC(N)=O)C(=O)N[C@@H](Cc1c[nH]cn1)C(=O)N[C@@H](CCCCN)C(=O)N[C@H](C(=O)N[C@H](C(=O)N[C@@H](CC(=O)O)C(=O)O)[C@@H](C)O)[C@@H](C)CC` [Compound 33] (HELM PEPTIDE1{H.[Aib].E.G.S.F.T.S.E.L.A.T.I.L.D.K.Q.A.A.R.D.F.I.A.W.L.Y.Q.H.K.I.T.D}|PEPTIDE2{[O=C(O)CCCCCCCCCCCCCCCCC(=O)[*:2]].[gGlu].[O=C(COCCOCCN[*:1])[*:2]]}$PEPTIDE1,PEPTIDE2,16:R3-3:R2$$$V2.0), the “pH 7 normalized stability” value is “A (>90% normalised stability)”.

On to `CC[C@H](C)[C@H](NC(=O)[C@H](Cc1ccccc1)NC(=O)[C@H](CC(=O)O)NC(=O)[C@H](CCCNC(=N)N)NC(=O)[C@H](C)NC(=O)[C@H](C)NC(=O)[C@H](CCC(N)=O)NC(=O)[C@H](CCCCNC(=O)COCCOCCNC(=O)COCCOCCNC(=O)CC[C@H](NC(=O)CCCCCCCCCCCCCCCCCCC(=O)O)C(=O)O)NC(=O)[C@H](CC(=O)O)NC(=O)[C@H](CC(C)C)NC(=O)[C@@H](NC(=O)[C@@H](NC(=O)[C@H](C)NC(=O)[C@H](CC(C)C)NC(=O)[C@H](CCC(=O)O)NC(=O)[C@H](CO)NC(=O)[C@@H](NC(=O)[C@H](Cc1ccccc1)NC(=O)[C@H](CO)NC(=O)CNC(=O)[C@H](CCC(=O)O)NC(=O)C(C)(C)NC(=O)[C@@H](N)Cc1c[nH]cn1)[C@@H](C)O)[C@@H](C)O)[C@@H](C)CC)C(=O)N[C@@H](C)C(=O)N[C@@H](Cc1c[nH]c2ccccc12)C(=O)N[C@@H](CC(C)C)C(=O)N[C@@H](CCCCN)C(=O)N[C@@H](CCC(N)=O)C(=O)N[C@@H](Cc1c[nH]cn1)C(=O)N[C@@H](CCCCN)C(=O)N[C@H](C(=O)N[C@H](C(=O)N[C@@H](CC(=O)O)C(=O)O)[C@@H](C)O)[C@@H](C)CC` [Compound 34] (H-H[Aib]EGSFTSELATILDK([AEEA-AEEA-γGlu-C20 diacid])QAARDFIAWLKQHKITD-OH), for which the “pH 7 normalized stability” value is listed as “A (>90% normalised stability)”.

As to `CC[C@H](C)[C@H](NC(=O)[C@H](Cc1ccccc1)NC(=O)[C@H](CC(=O)O)NC(=O)[C@H](CCCNC(=N)N)NC(=O)[C@H](C)NC(=O)[C@H](C)NC(=O)[C@H](CCC(N)=O)NC(=O)[C@H](CCC(=O)O)NC(=O)[C@H](CC(=O)O)NC(=O)[C@H](CC(C)C)NC(=O)[C@@H](NC(=O)[C@@H](NC(=O)[C@H](C)NC(=O)[C@H](CCCCNC(=O)COCCOCCNC(=O)[C@H](CCCCN)NC(=O)[C@H](CCC(=O)O)NC(=O)[C@H](CCCCN)NC(=O)CC[C@H](NC(=O)CCCCCCCCCCCCCCCCCCC(=O)O)C(=O)O)NC(=O)[C@H](CCC(=O)O)NC(=O)[C@H](CO)NC(=O)[C@@H](NC(=O)[C@H](Cc1ccccc1)NC(=O)[C@H](CO)NC(=O)CNC(=O)[C@H](CCC(=O)O)NC(=O)C(C)(C)NC(=O)[C@@H](N)Cc1c[nH]cn1)[C@@H](C)O)[C@@H](C)O)[C@@H](C)CC)C(=O)N[C@@H](C)C(=O)N[C@@H](Cc1c[nH]c2ccccc12)C(=O)N[C@@H](CC(C)C)C(=O)N[C@H](C(=O)N[C@@H](CCC(=O)O)C(=O)N[C@@H](Cc1c[nH]cn1)C(=O)N[C@@H](CCCCN)C(=O)N[C@H](C(=O)N[C@H](C(=O)N[C@@H](CC(=O)O)C(=O)O)[C@@H](C)O)[C@@H](C)CC)[C@@H](C)CC` [Compound 53] (HELM PEPTIDE1{H.[Aib].E.G.S.F.T.S.E.K.A.T.I.L.D.E.Q.A.A.R.D.F.I.A.W.L.I.E.H.K.I.T.D}|PEPTIDE2{[O=C(O)CCCCCCCCCCCCCCCCCCC(=O)[*:2]].[gGlu].K.E.K.[O=C(COCCOCCN[*:1])[*:2]]}$PEPTIDE1,PEPTIDE2,10:R3-6:R2$$$V2.0), the “pH 7 normalized stability” value was “A (>90% normalised stability)”.

As to `CC[C@H](C)[C@H](NC(=O)[C@H](Cc1ccccc1)NC(=O)[C@H](CC(=O)O)NC(=O)[C@H](CCCNC(=N)N)NC(=O)[C@H](C)NC(=O)[C@H](C)NC(=O)[C@H](CCC(N)=O)NC(=O)[C@H](CCC(=O)O)NC(=O)[C@H](CC(=O)O)NC(=O)[C@H](CC(C)C)NC(=O)[C@@H](NC(=O)[C@@H](NC(=O)[C@H](C)NC(=O)[C@H](CCCCNC(=O)COCCOCCNC(=O)COCCOCCNC(=O)[C@H](CCCCN)NC(=O)[C@H](CCC(=O)O)NC(=O)[C@H](CCCCN)NC(=O)CC[C@H](NC(=O)CCCCCCCCCCCCCCCCCCC(=O)O)C(=O)O)NC(=O)[C@H](CCC(=O)O)NC(=O)[C@H](CO)NC(=O)[C@@H](NC(=O)[C@H](Cc1ccccc1)NC(=O)[C@H](CO)NC(=O)CNC(=O)[C@H](CCC(=O)O)NC(=O)C(C)(C)NC(=O)[C@@H](N)Cc1c[nH]cn1)[C@@H](C)O)[C@@H](C)O)[C@@H](C)CC)C(=O)N[C@@H](C)C(=O)N[C@@H](Cc1c[nH]c2ccccc12)C(=O)N[C@@H](CC(C)C)C(=O)N[C@H](C(=O)N[C@@H](CCC(=O)O)C(=O)N[C@@H](Cc1c[nH]cn1)C(=O)N[C@@H](CCCCN)C(=O)N[C@H](C(=O)N[C@H](C(=O)N[C@@H](CC(=O)O)C(=O)O)[C@@H](C)O)[C@@H](C)CC)[C@@H](C)CC` [Compound 55] (H-H[Aib]EGSFTSEK([AEEA-AEEA-Lys-Glu-Lys-γGlu-C20 diacid])ATILDEQAARDFIAWLIEHKITD-OH), the “pH 7 normalized stability” value was “A (>90% normalised stability)”.
